Measured values published in patent US6368651B1, “Use of additives to modify the taste characteristics of N-neohexyl-α-aspartyl-L-phenylalanine methyl ester” (The NutraSweet Company, priority 1999, dated 2002).
Structures can show the parent of a compound that is named as a salt. Where a SMILES comes first, the peptide text is derived from it.

Tests used:
[1] = Taste evaluation in neotame-sweetened hot cocoa beverage
[2] = Taste evaluation in neotame-sweetened reconstituted powdered soft drink
[3] = Taste evaluation of solid tabletop sweetener in whitened, brewed coffee beverage; settings: for effectiveness as taste modifying ingredient: tabletop sweetener in a whitened coffee beverage, concentration not given
Procedure: The following examples 51-78 are directed to solid tabletop sweetener preparations, specifically sachet or packet preparations, comprising mixtures of neotame, one or more taste modifying ingredients and a bulking agent. Taste evaluations were conducted on sweetened coffee or tea beverages prepared by dissolving the solid tabletop sweetener (total weight of 1.00 g) in a cup of brewed coffee or tea. The concentration of the ingredients in the tabletop sweetener is expressed as a percentage by weight, whereas the concentration of the ingredients in the beverage is expressed as parts per million (ppm) or parts per trillion (ppt). The beverages were prepared such that the concentration of neotame in sweetened, whitened coffee beverage was approximately 3-5 ppm and the concentration of neotame in sweetened tea was approximately 5-7 ppm.

[4] = Taste evaluation in neotame-sweetened cola-flavored beverage; settings: for taste characteristic imparted by neotame / taste of beverage across tested concentrations / taste compared to neotame-sweetened cola-flavored beverage: cola; for effectiveness as taste modifying ingredient: test cola-beverage formulation, concentration not given
Procedure: When a neotame salt was used as a taste modifying/sweetening ingredient, the neotame salt as added in an amount sufficient to provide about 15 ppm to about 25 ppm neotame (e.g., about 0.0028 g of a potassium neotame salt would be used to provide 100 ml of a 25 ppm neotame solution). The taste modifying ingredient was dissolved in the sweetened beverage and the beverage was allowed to stand overnight at room temperature prior to evaluation. Evaluations of the cola-flavored beverages were conducted using a beverage containing water, sodium benzoate (0.16%), phosphoric acid (0.22%), citric acid (0.05%), trisodium citrate (0.08%), caffeine (0.03%), Flavor 28 (1.72%), sweetened with neotame in an amount of about 0.0015% to about 0.0025% (15 ppm to 25 ppm), adjusted to pH 3.2 using sodium citrate.

[5] = Taste evaluation in neotame-sweetened gelatin dessert; settings: glycerin 8.4 ppm
[6] = on a weight basis; cited from earlier work
[7] = Taste evaluation in neotame-sweetened strawberry-flavored yogurt; settings: serine 25 ppm

Compound: COC(=O)[C@H](Cc1ccccc1)NC(=O)[C@@H](N)CC(=O)O [aspartame] (H-Asp-Phe-OMe)
- taste characteristic imparted by neotame ([1]; aspartame 100 ppm): positively affected
- taste characteristic imparted by neotame ([2]; aspartame 100 to 160 ppm, reconstituted punch or lemonade-flavored powdered soft drink): positively affected
- taste characteristic imparted by neotame ([3]; aspartame 0.6% to 1.25% by weight (beverage 25 to 52 ppm), neotame 3.75 ppm, Unidex bulking agent): positively affected
- taste characteristic imparted by neotame ([4]; aspartame 20 to 40 ppm): positively affected

Compound: C[C@@H]1O[C@@H](O[C@H]2[C@H](Oc3cc(O)c4c(c3)O[C@H](c3ccc(O)cc3)CC4=O)O[C@H](CO)[C@@H](O)[C@@H]2O)[C@H](O)[C@H](O)[C@H]1O [naringin]
- effectiveness as taste modifying ingredient [4]: ineffective

Compound: OCC(O)CO [glycerol]
- taste characteristic imparted by neotame [5]: positively affected
- taste characteristic imparted by neotame ([2]; glycerin 4 to 35 ppm, reconstituted punch-flavored powdered soft drink): positively affected
- taste characteristic imparted by neotame ([3]; glycerol 0.04% to 0.2% by weight (beverage 1.7 to 8.3 ppm), neotame 3.3 ppm, Unidex): positively affected
- taste characteristic imparted by neotame ([4]; glycerol 15 ppm to 2,000 ppm): positively affected

Compound: COc1ccc(CCC(=O)c2c(O)cc(O[C@@H]3O[C@H](CO)[C@@H](O)[C@H](O)[C@H]3O[C@@H]3O[C@@H](C)[C@H](O)[C@@H](O)[C@H]3O)cc2O)cc1O [neohesperidin dihydrochalcone]
- taste characteristic imparted by neotame ([1]; neohesperidin dihydrochalcone 2 to 3 ppm): positively affected
- taste characteristic imparted by neotame ([2]; neohesperidin dihydrochalcone 2 to 3 ppm, reconstituted punch or lemonade flavored powdered soft drinks): positively affected
- taste characteristic imparted by neotame ([3]; neohesperidin dihydrochalcone 0.040% to 0.048% by weight (beverage 1.68 to 2.0 ppm), neotame 3.75 ppm, Unidex): positively affected
- taste characteristic imparted by neotame ([4]; NHDC 3 ppm): positively affected

Compound: polysorbate 80
- effectiveness as taste modifying ingredient [3]: effective
- taste characteristic imparted by neotame ([4]; polysorbate 80 10 to 15 ppm): positively affected

Compound: CC1=CC(=O)[N-]S(=O)(=O)O1.[K+] [acesulfame-K]
- taste characteristic imparted by neotame ([1]; acesulfame-K 40 to 100 ppm): positively affected
- taste characteristic imparted by neotame ([2]; acesulfame-K 40 to 100 ppm, reconstituted punch or lemonade-flavored powdered soft drink): positively affected
- taste characteristic imparted by neotame ([4]; acesulfame-K 20 to 40 ppm, neotame 15-25 ppm): positively affected

Compound: COc1cc(C=O)ccc1O [vanillin]
- taste characteristic imparted by neotame ([2]; vanillin 0.5 ppm, reconstituted punch and lemonade-flavored soft drinks): positively affected

Compound: O=C1NS(=O)(=O)c2ccccc21 [saccharin]
- taste characteristic imparted by neotame ([1]; saccharin 20 to 40 ppm): positively affected
- taste characteristic imparted by neotame ([2]; saccharin 20 to 40 ppm, reconstituted punch or lemonade-flavored powdered soft drink): positively affected
- taste characteristic imparted by neotame ([3]; saccharin 1.32% by weight (beverage 5.5 ppm), neotame 3.75 ppm, Unidex): positively affected
- taste characteristic imparted by neotame ([4]; saccharin 20 to 150 ppm): positively affected
- taste of beverage across tested concentrations ([4]; saccharin 100 ppm): best tasting beverage

Compound: Neotame-monopotassium phosphate
- effectiveness as taste modifying ingredient [4]: ineffective

Compound: COC(=O)[C@H](Cc1ccccc1)NC(=O)[C@H](CC(=O)[O-])NCCC(C)(C)C.[K+] [potassium-neotame salt]
- taste characteristic imparted by neotame, compared to neotame-sweetened coffee beverage ([3]; potassium-neotame salt 0.11% by weight (beverage 4.58 ppm), Unidex): positively affected
- taste compared to neotame-sweetened cola-flavored beverage ([4]; potassium-neotame salt as sweetener): improved taste

Compound: Cn1c(=O)c2c(ncn2C)n(C)c1=O [caffeine]
- taste characteristic imparted by neotame ([4]; caffeine 140 to 425 ppm): positively affected

Compound: C[C@@H](O)[C@H](N)C(=O)O [threonine]
- taste characteristic imparted by neotame ([4]; threonine 5 ppm to 30 ppm): positively affected

Compound: COC(=O)[C@H](Cc1ccccc1)NC(=O)[C@H](CC(=O)O)NCCC(C)(C)C [neotame, N-[N-(3,3-dimethylbutyl)-L-α-aspartyl]-L-phenylalanine 1-methyl ester]
- sweetness relative to sucrose [6]: approximately 8,000 times as sweet as sucrose

Compound: OC[C@H]1O[C@@](CO)(O[C@H]2O[C@H](CO)[C@@H](O)[C@H](O)[C@H]2O)[C@@H](O)[C@@H]1O [sucrose]
- taste characteristic imparted by neotame ([4]; sucrose 2000 ppm to 4000 ppm): positively affected

Compound: polysorbate 65
- taste characteristic imparted by neotame ([4]; polysorbate 65 10 to 15 ppm): positively affected

Compound: CCc1occc(=O)c1O [ethyl maltol]
- taste characteristic imparted by neotame ([3]; ethyl maltol 0.0482% by weight (beverage 2 ppm), neotame 3.75 ppm, Unidex): positively affected

Compound: [Cl-].[K+] [potassium chloride]
- effectiveness as taste modifying ingredient [4]: ineffective

Compound: COC1=C(C)OC(C)C1=O (centres unmarked) [Mesifuran]
- effectiveness as taste modifying ingredient [4]: not an effective taste modifying ingredient

Compound: CC1=CC(=O)NS(=O)(=O)O1.COC(=O)C(Cc1ccccc1)NC(=O)C(CC(=O)O)NCCC(C)(C)C (centres unmarked) [acesulfame-neotame salt]
- taste compared to neotame-sweetened cola-flavored beverage ([4]; acesulfame-neotame salt 40 ppm): improved taste

Compound: OC[C@@H](O)[C@@H](O)[C@H](O)[C@H](O)CO [mannitol]
- taste characteristic imparted by neotame ([4]; mannitol 100 ppm to 2,000 ppm): positively affected

Compound: CC1(C)[C@@H](O[C@H]2O[C@H](C(=O)O)[C@@H](O)[C@H](O)[C@H]2O[C@@H]2O[C@H](C(=O)O)[C@@H](O)[C@H](O)[C@H]2O)CC[C@]2(C)[C@H]3C(=O)C=C4[C@@H]5C[C@@](C)(C(=O)O)CC[C@]5(C)CC[C@@]4(C)[C@]3(C)CC[C@@H]12.N [monoammonium glycyrrhizinate]
- taste characteristic imparted by neotame ([4]; monoammonium glycyrrhizinate 0.25 ppm): positively affected

Compound: neotame-monocalcium phosphate
- effectiveness as taste modifying ingredient [4]: ineffective

Compound: N[C@@H](CO)C(=O)O [serine]
- taste characteristic imparted by neotame [7]: positively affected
- taste characteristic imparted by neotame ([2]; serine 5 ppm to 30 ppm, reconstituted strawberry-flavored powdered soft drink): positively affected
- taste characteristic imparted by neotame ([4]; serine 50 ppm): positively affected

Compound: [Ca+2].[Cl-].[Cl-] [calcium chloride]
- taste characteristic imparted by neotame ([3]; calcium chloride 0.072% by weight (beverage 3 ppm), neotame 3.75 ppm, Unidex): positively affected

Compound: OC[C@@H](O)[C@@H](O)CO [erythritol]
- taste characteristic imparted by neotame ([4]; erythritol 200 ppm to 10,000 ppm): positively affected

Compound: COC(=O)[C@H](Cc1ccccc1)NC(=O)[C@H](CC(=O)[O-])NCCC(C)(C)C.COC(=O)[C@H](Cc1ccccc1)NC(=O)[C@H](CC(=O)[O-])NCCC(C)(C)C.[Ca+2] [calcium-neotame salt]
- taste characteristic imparted by neotame, compared to neotame-sweetened coffee beverage ([3]; calcium-neotame salt 0.056% by weight (beverage 2.33 ppm), Unidex): positively affected
- taste compared to neotame-sweetened cola-flavored beverage ([4]; calcium-neotame salt as sweetener): improved taste

Compound: OC[C@@H](O)[C@H](O)[C@@H](O)CO [xylitol]
- effectiveness as taste modifying ingredient [4]: ineffective

Compound: beta cyclodextrin-neotame complex
- taste characteristic imparted by neotame ([3]; beta cyclodextrin-neotame complex 1.409% by weight (beverage 58.7 ppm, neotame 3.3 ppm), Unidex): positively affected

Compound: N[C@@H](Cc1ccc(O)cc1)C(=O)O [L-tyrosine]
- taste characteristic imparted by neotame ([2]; tyrosine 35 ppm, reconstituted punch-flavored powdered soft drink): positively affected
- taste characteristic imparted by neotame ([3]; L-tyrosine 0.288% by weight (beverage 12 ppm), neotame 3.75 ppm, Unidex): positively affected
- taste characteristic imparted by neotame ([4]; L-tyrosine 15 to 50 ppm): positively affected

Compound: C=C[C@H]1C[N@@]2CC[C@H]1C[C@H]2[C@H](O)c1ccnc2ccc(OC)cc12 [quinine sulfate]
- taste characteristic imparted by neotame ([4]; quinine sulfate 0.01 to 1 ppm): positively affected

Compound: neotame-phosphate salt
- taste compared to neotame-sweetened cola-flavored beverage ([4]; neotame-phosphate salt as sweetener): improved taste

Compound: OC[C@@H](O)[C@@H](O)[C@H](O)[C@@H](O)CO [sorbitol]
- effectiveness as taste modifying ingredient [4]: ineffective

Compound: COC(=O)[C@H](Cc1ccccc1)NC(=O)[C@H](CC(=O)[O-])NCCC(C)(C)C.[Na+] [sodium-neotame salt]
- taste characteristic imparted by neotame, compared to neotame-sweetened coffee beverage ([3]; sodium-neotame salt 0.09% by weight (beverage 3.75 ppm), Unidex): positively affected

Compound: Cc1occc(=O)c1O [maltol]
- taste characteristic imparted by neotame ([3]; maltol 0.035% by weight (beverage 1.44 ppm), neotame 3.75 ppm, Unidex): positively affected

Compound: thaumatin
- taste characteristic imparted by neotame ([3]; thaumatin 0.12% by weight (beverage 5.0 ppm), neotame 3.75 ppm, Unidex): positively affected

Compound: polysorbate 60
- taste characteristic imparted by neotame ([3]; polysorbate 60 0.05% to 0.10% by weight (beverage 2.08 to 4.2 ppm), neotame 3.75 ppm, Unidex): positively affected
- effectiveness as taste modifying ingredient [3]: effective
- taste characteristic imparted by neotame ([4]; polysorbate 60 10 to 15 ppm): positively affected

Compound: [Cl-].[Na+] [sodium chloride]
- taste characteristic imparted by neotame ([4]; sodium chloride 5 to 50 ppm): positively affected
- taste of beverage across tested concentrations ([4]; sodium chloride 10 ppm): best tasting beverage
